Test results: the NIST ThermoML archive (doi:10.1021/je400839x)
± gives the expanded uncertainty stated by the source.

Columns and labels:
[1] = xn = mol fraction of the nth substance listed; conditions: 101 kPa, Liquid, x2 = 0; for viscosity: Concentric cylinders viscometry; for mass density: Vibrating tube method
[2] = for viscosity / mass density / speed of sound: 101 kPa, Liquid; for viscosity: Concentric cylinders viscometry; for mass density: Vibrating tube method; for speed of sound: Pulse-echo method

Row | Structure (SMILES) | viscosity ([2]; 293.15 K) | mass density ([2]; 293.15 K) | viscosity ([2]; 303.15 K) | mass density ([2]; 303.15 K) | viscosity ([2]; 313.15 K) | mass density ([2]; 313.15 K) | viscosity ([2]; 323.15 K) | mass density ([2]; 323.15 K) | viscosity ([2]; 333.15 K) | mass density ([2]; 333.15 K) | viscosity ([2]; 343.15 K) | mass density ([2]; 343.15 K) | viscosity ([2]; 353.15 K) | mass density ([2]; 353.15 K) | viscosity ([2]; 363.15 K) | mass density ([2]; 363.15 K) | viscosity ([2]; 373.15 K) | mass density ([2]; 373.15 K) | other results
1 | CCCCCCCCCCCCCCCC [hexadecane] + CC(CC(C)(C)C)CC(C)(C)C | – | – | – | – | – | – | – | – | – | – | – | – | – | – | – | – | – | – | viscosity ([1]; 293.15 K): 3.44 ± 0.02 mPa·s; mass density ([1]; 293.15 K): 773.7 ± 0.3 kg/m3; viscosity ([1]; 303.15 K): 2.72 ± 0.02 mPa·s; mass density ([1]; 303.15 K): 766.8 ± 0.3 kg/m3; viscosity ([1]; 313.15 K): 2.21 ± 0.02 mPa·s; mass density ([1]; 313.15 K): 759.9 ± 0.3 kg/m3; viscosity ([1]; 323.15 K): 1.82 ± 0.01 mPa·s; mass density ([1]; 323.15 K): 752.9 ± 0.3 kg/m3; viscosity ([1]; 333.15 K): 1.53 ± 0.01 mPa·s; mass density ([1]; 333.15 K): 746 ± 0.3 kg/m3; viscosity ([1]; 343.15 K): 1.31 ± 0.01 mPa·s; mass density ([1]; 343.15 K): 739 ± 0.3 kg/m3; viscosity ([1]; 353.15 K): 1.13 ± 0.01 mPa·s; mass density ([1]; 353.15 K): 731.9 ± 0.3 kg/m3; viscosity ([1]; 363.15 K): 0.99 ± 0.009 mPa·s; mass density ([1]; 363.15 K): 724.8 ± 0.3 kg/m3; viscosity ([1]; 373.15 K): 0.876 ± 0.009 mPa·s; mass density ([1]; 373.15 K): 717.7 ± 0.3 kg/m3
2 | CCCCCCCCCCCCCCCC [hexadecane] | 3.44 ± 0.02 mPa·s | 773.7 ± 0.3 kg/m3 | 2.72 ± 0.02 mPa·s | 766.8 ± 0.3 kg/m3 | 2.21 ± 0.02 mPa·s | 759.9 ± 0.3 kg/m3 | 1.82 ± 0.01 mPa·s | 752.9 ± 0.3 kg/m3 | 1.53 ± 0.01 mPa·s | 746 ± 0.3 kg/m3 | 1.31 ± 0.01 mPa·s | 739 ± 0.3 kg/m3 | 1.13 ± 0.01 mPa·s | 731.9 ± 0.3 kg/m3 | 0.99 ± 0.009 mPa·s | 724.8 ± 0.3 kg/m3 | 0.876 ± 0.009 mPa·s | 717.7 ± 0.3 kg/m3 | –
3 | CC(CC(C)(C)C)CC(C)(C)C [2,2,4,6,6-pentamethylheptane] | 1.29 ± 0.02 mPa·s | 745.5 ± 0.6 kg/m3 | 1.1 ± 0.01 mPa·s | 738.2 ± 0.6 kg/m3 | 0.941 ± 0.012 mPa·s | 730.9 ± 0.6 kg/m3 | 0.827 ± 0.011 mPa·s | 723.5 ± 0.6 kg/m3 | 0.726 ± 0.01 mPa·s | 716.1 ± 0.6 kg/m3 | 0.643 ± 0.01 mPa·s | 708.6 ± 0.6 kg/m3 | 0.573 ± 0.009 mPa·s | 700.9 ± 0.5 kg/m3 | 0.515 ± 0.009 mPa·s | 693.2 ± 0.5 kg/m3 | 0.467 ± 0.008 mPa·s | 685.5 ± 0.5 kg/m3 | speed of sound ([2]; 293.15 K): 1204 ± 2.2 m/s; surface tension liquid-gas ([2]; 294 K, Pendant drop shape): 21.8 ± 0.4 mN/m; speed of sound ([2]; 303.15 K): 1164.9 ± 2.2 m/s; speed of sound ([2]; 313.15 K): 1126.7 ± 2.2 m/s; speed of sound ([2]; 323.15 K): 1089.3 ± 2.2 m/s
